According to PubChem BioAssay (NCI):
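Results reflect a 48-hour exposure of cells in 96-well plates to compound at five concentrations. Here, GI50 denotes the concentration required for 50% inhibition of growth. At the TGI there is no net growth.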

Experiments:
Assay in all cases: DTP human tumour cell line panel, 48 h
A549 NSCLC = system: A549 NSCLC
ACHN renal = system: ACHN renal
KM12 colon = system: KM12 colon
LOX IMVI melanoma = system: LOX IMVI melanoma
OVCAR-3 ovarian = system: OVCAR-3 ovarian
OVCAR-5 ovarian = system: OVCAR-5 ovarian
RXF 393 renal = system: RXF 393 renal
SF-539 CNS = system: SF-539 CNS
UO-31 renal = system: UO-31 renal
MCF7 breast = system: MCF7 breast

SMILES | TGI (A549 NSCLC) | TGI (ACHN renal) | TGI (KM12 colon) | TGI (LOX IMVI melanoma) | TGI (OVCAR-3 ovarian) | TGI (OVCAR-5 ovarian) | TGI (RXF 393 renal) | TGI (SF-539 CNS) | TGI (UO-31 renal) | GI50 (A549 NSCLC) | GI50 (ACHN renal) | GI50 (KM12 colon) | GI50 (MCF7 breast) | TGI (MCF7 breast) | GI50 (OVCAR-3 ovarian) | GI50 (OVCAR-5 ovarian) | GI50 (SF-539 CNS) | GI50 (UO-31 renal) | GI50 (LOX IMVI melanoma) | GI50 (RXF 393 renal)
O=C1c2ccc3c4ccccc4n(-c4ccccc4)c3c2C(=O)N1c1ccc(Cl)cc1 | > 100 µM | > 100 µM | > 100 µM | > 100 µM | > 100 µM | > 100 µM | > 100 µM | > 100 µM | > 100 µM | – | – | – | – | – | – | – | – | – | – | –
COc1ccc(/C=N/N=C(\N)NO)c(OC)c1C | 44.9 µM | 43.1 µM | > 100 µM | > 100 µM | > 100 µM | 7.69 µM | 69.8 µM | 54.1 µM | 31.7 µM | – | – | – | – | – | – | – | – | – | – | –
O=C(NNc1cnccn1)c1nc2cc(F)ccc2n2cccc12 | > 100 µM | > 100 µM | > 100 µM | – | > 100 µM | > 100 µM | – | > 31.6 µM | > 100 µM | 0.542 µM | 0.362 µM | 0.509 µM | 0.336 µM | > 100 µM | 0.311 µM | 0.828 µM | 0.847 µM | 0.261 µM | – | –
COC(=O)[C@]12CC[C@@H](C)[C@H](C)[C@@H]1C1=CC[C@@H]3[C@@]4(C)C(C=O)=C[C@@](C)(COC(=O)c5ccco5)[C@@H]4[C@H](O)C[C@@]3(C)[C@]1(C)CC2 | 16.2 µM | 3.78 µM | 4.5 µM | 2.94 µM | 3.73 µM | 9.72 µM | – | 3.93 µM | 3.48 µM | 3.51 µM | 1.13 µM | 1.83 µM | 2.31 µM | 9.86 µM | 1.87 µM | 3 µM | 1.89 µM | 1.66 µM | 1.57 µM | –
COc1ccc(-c2cc(-c3ccc(Nc4ccnc5cc(Cl)ccc45)cc3)nc(N3CCOCC3)n2)cc1 | – | – | – | – | – | > 100 µM | 5.35 µM | – | > 100 µM | – | – | – | – | – | – | > 100 µM | – | > 100 µM | – | 2.21 µM
COc1ccc2c(c1)C(C)Cc1c(ncnc1-n1cnc3ccccc31)N2C (stereo not drawn) | 16.6 µM | 27.4 µM | 12.1 µM | 18.2 µM | 3.41 µM | 43.9 µM | – | 0.774 µM | 19.2 µM | 0.642 µM | 0.635 µM | 0.444 µM | 0.313 µM | 14 µM | 0.357 µM | 6.21 µM | 0.251 µM | 0.72 µM | 0.602 µM | –
C1COCCSC2=C(SCCO1)SC(=C1SC3=C(SCCOCCOCCS3)S1)S2 | > 100 µM | > 100 µM | > 100 µM | > 100 µM | > 100 µM | > 100 µM | > 100 µM | > 100 µM | > 100 µM | – | – | – | – | – | – | – | – | – | – | –
c1ccc(NCCSc2nc3ccccc3s2)cc1 | > 100 µM | > 100 µM | > 100 µM | > 100 µM | > 100 µM | > 100 µM | > 100 µM | – | > 100 µM | – | – | – | – | > 100 µM | – | – | – | – | – | –
COc1cc(-c2nnc3n2NC=C(C(=O)O)S3)cc(OC)c1OC | > 100 µM | > 100 µM | > 100 µM | > 100 µM | > 100 µM | > 100 µM | > 100 µM | > 61.4 µM | > 100 µM | – | – | – | – | – | – | – | – | – | – | –
